Data: PubChem BioAssay AID179 (DTP/NCI, 2004)
Where “and” joins values, the source holds several entries; their conditions need not be identical. Equal values may be shown once. Calls of active or inactive are those of the source.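 Rule for the calls: active = compounds giving half or more protection of infected cells from virus-caused growth loss, again on retest; inactive = the rest.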

Test system: CEM cells HIV-1 protection, formazan growth assay
Assay: NCI AIDS Antiviral Assay
Conditions: for IC50: measured here: growth of uninfected CEM cells
Method in brief: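 Screen of anti-HIV-1 activity in human CEM cells using a formazan-based growth measurement at five drug concentrations. Hits with 50% or greater protection were repeated, and confirmation required reproducible complete protection.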

## CC1OC(OC2C(Oc3cc(O)c4c(c3)O[C@H](c3ccc(O)cc3)CC4=O)OC(CO)C(O)C2O)C(O)C(O)C1O (stereo not given in full)
  EC50: > 200 µM
  IC50: > 200 µM

## Oc1c2cc(Cl)cc1COCc1cc(Cl)cc(c1O)COCc1cc(Cl)cc(c1O)COC2
  EC50: > 200 µM
  IC50: 38.9 µM

## CCOC(=S)/C=C/c1ccccc1
  outcome: inactive

## O=C1CCOc2cc(ccc2O)CCN1
  EC50: > 200 µM
  IC50: > 200 µM

## O=c1[nH]oc2ccccc12
  EC50: > 200 µM
  IC50: > 200 µM

## COC(=O)C1=CC[C@@H]2C(C(=O)O)=CO[C@@H](OC3OC(CO)C(O)C(O)C3O)[C@H]12 (stereo not given in full)
  EC50: > 200 µM
  IC50: > 200 µM

## COc1cc(C(=O)C/C(CCC(=O)Nc2ccccc2[N+](=O)[O-])=N\NC(=O)CC#N)ccc1O
  EC50: > 537 µM
  IC50: 224 µM

## CC(=O)c1cccc(NC(=O)C(=O)C(C(=O)c2ccccc2F)C2OC(=O)c3ccccc32)c1 (stereo not given)
  EC50: > 389 µM
  IC50: 15.8 µM

## CCC(=O)NC1Cc2cc(C)cc(C)c21 (stereo not given)
  EC50: > 89.1 µM
  IC50: > 89.1 µM

## COc1ccc(OC)c(C(Nc2ccc3cn[nH]c3c2)P(=O)(c2ccccc2)c2ccccc2)c1 (stereo not given)
  outcome: inactive

## CC12CCC3C4CCC(=O)C(CCC(=O)O)=C4CCC3(CO1)C2 (stereo not given)
  EC50: > 794 µM
  IC50: > 794 µM

## O=C(O)CCCCSCCCCCCSCCCCC(=O)O
  EC50: > 141 µM
  IC50: > 141 µM

## N/C(=N\N=C\c1ccc2c(c1)OCO2)NO
  EC50: > 200 µM
  IC50: 105 µM

## Nc1nc(N)c2nc(-c3ccco3)cnc2n1
  outcome: inactive

## COc1ccc(N2C(=O)C3c4[nH]c5ccc(OCc6ccccc6)cc5c4C4CCC(c5ccccc5)CC4C3C2=O)cc1 (stereo not given)
  EC50: > 100 µM
  IC50: > 100 µM

## CC12CC3C(CC1SCC(=O)O2)C3(C)C (stereo not given)
  EC50: > 302 µM
  IC50: > 302 µM

## O=C(C1=CCC2(CC1)OCCO2)N(Cc1ccccc1)c1ccccc1I
  EC50: > 200 µM
  IC50: 32.4 µM

## CCN(CC)C(=O)CCn1ccc(=O)[nH]c1=O
  EC50: > 1050 µM
  IC50: > 1050 µM

## OCCC(Sc1ccccc1)Sc1ccccc1
  outcome: inactive

## Cc1nc2cc(N)c(F)cc2[nH]1
  EC50: > 537 µM
  IC50: > 537 µM

## CCN(CC)CCCCCCNc1cc(OC)cc2c(C)ccnc12
  EC50: > 603 µM
  IC50: 19.5 µM

## OC1C(CBr)OC(OC[C@H](COCc2ccccc2)OCc2ccccc2)C(O)C1O (stereo not given in full)
  EC50: > 214 µM
  IC50: > 100 µM

## N#CCCN(CCC#N)C(=O)c1cccc(C(=O)N(CCC#N)CCC#N)c1
  outcome: inactive

## CC1(C)NC(=O)N(C(C)(C)C(=O)O)C1=O
  EC50: > 200 µM
  IC50: > 200 µM

## O=C(O)[C@H]1CCCN1C(=O)c1ccccc1SSc1ccccc1C(=O)N1CCC[C@H]1C(=O)O
  EC50: > 200 µM
  IC50: > 200 µM

## CCOC(=O)NC(C(F)(F)F)(C(F)(F)F)P(=O)(OCC)OCC
  EC50: > 200 µM
  IC50: 11.5 µM

## Cc1c2c(C(N)=O)nccc2c(C)c2c1c1ccccc1n2Cc1ccccc1
  outcome: inactive

## O=C1CN=C(c2ccccn2)c2cc(Cl)ccc2N1CCO
  EC50: > 794 µM
  IC50: 468 µM

## COc1ccc([C@H]2CC(=O)C[C@H](c3ccc(OC)cc3OC)C23C(=O)c2ccccc2C3=O)c(OC)c1
  EC50: > 200 µM
  IC50: 151 µM

## COc1ccc(-c2c(C#N)c(N)n(C3OCC(OC(C)=O)C(OC(C)=O)C3OC(C)=O)c(=S)c2C#N)cc1 (stereo not given)
  EC50: > 200 µM
  IC50: 20.9 µM and 29.5 µM

## COc1cccc(/C=C/c2nc3ccccc3nc2/C=C/c2cccc(OC)c2OC)c1OC
  EC50: > 200 µM
  IC50: 55 µM

## CC(=O)OCC(OC(C)=O)C(OC(C)=O)C(OC(C)=O)C(C=NN(C(C)=O)S(=O)(=O)c1ccc(/C=C2\NC(=O)N(C)C2=O)cc1)OC(C)=O (stereo not given)
  EC50: > 200 µM
  IC50: 7.24 µM and 11.2 µM

## CC(=O)OCCCOCn1c(Cc2ccccc2)c(C)c(=O)[nH]c1=O
  EC50: 100 µM
  IC50: > 200 µM

## COC(=O)CNC(=O)c1cc(C)cc2c1Oc1c(cc(C)cc1C(=O)NCC(=O)OC)S2
  EC50: > 200 µM
  IC50: > 200 µM

## CSc1nc(Nc2ccccc2Cl)c2c(N)nn(C)c2n1
  EC50: > 200 µM
  IC50: > 200 µM

## Cc1ccc(SCC(OCn2cnc3c(Cl)nc(N)nc32)[C@H](C)F)cc1 (stereo not given in full)
  EC50: > 200 µM
  IC50: 24 µM

## CC1=CC(=O)c2c(C=O)c(O)c(O)c(C(C)C)c2C1=O
  EC50: > 95.5 µM
  IC50: 1.91 µM

## CCOc1ccc2nc(NC(=O)C(=O)C(C(=O)c3ccccc3-c3ccccc3)C3OC(=O)c4ccccc43)sc2c1 (stereo not given)
  EC50: > 309 µM
  IC50: 132 µM

## COc1ccc(C(=O)c2ccc(OC)c(S(=O)(=O)N(C)C)c2)cc1S(=O)(=O)N(C)C
  EC50: > 79.4 µM
  IC50: > 79.4 µM

## O=C(O)c1cc(S(=O)(=O)Nc2cc(Cc3cc(NS(=O)(=O)c4ccc(O)c(C(=O)O)c4)c(O)c(C(=O)O)c3)cc(C(=O)O)c2O)ccc1O
  EC50: > 100 µM
  IC50: > 100 µM

## Cc1cc(S(=O)(=O)Nc2nc(N)nc(N(C)C)n2)c(SC(C(=O)O)c2ccccc2)cc1Cl (stereo not given)
  EC50: 85.1 µM
  IC50: > 200 µM

## N#CC(c1ccccc1)N(CCc1ccccc1)C(=O)Oc1ccccc1 (stereo not given)
  EC50: > 200 µM
  IC50: > 200 µM

## COc1cc(N(CCC#N)CCC#N)ccc1/C(N=Nc1ccc(C(=O)O)cc1)=N/NC(=O)c1cc(Br)ccc1O
  EC50: > 200 µM
  IC50: 26.3 µM

## Cc1nc(N)nc(N)c1N1CCNCC1
  EC50: > 200 µM
  IC50: > 200 µM

## N#Cc1c(-c2ccccc2)cn(C(=O)c2ccccc2)c1N
  EC50: > 200 µM
  IC50: 191 µM

## CC1(CC(=O)OC(C#C[Si](C)(C)C)Cc2ccccc2)OCCO1 (stereo not given)
  EC50: > 200 µM
  IC50: 102 µM

## NS(=O)(=O)c1ccc(Nc2c3ccccc3nc3c(C(=O)N4CCN(CCO)CC4)cccc23)cc1
  EC50: > 43.7 µM
  IC50: > 43.7 µM

## N#CNC(=NCc1ccccc1)N(Cc1ccccc1)Cc1ccccc1
  EC50: > 14.8 µM
  IC50: > 14.8 µM

## COc1ccc(/C=N/N=C(\N)NO)c(O)c1
  EC50: > 200 µM
  IC50: 10.5 µM

## Cc1cc(C#N)c[n+](C)c1
  EC50: > 200 µM
  IC50: > 200 µM

## C=C1CN=C(Nc2ccc(F)cc2F)S1
  EC50: > 200 µM
  IC50: > 100 µM

## CCSc1c(S)cnn(C)c1=O
  EC50: 23.4 µM
  IC50: 30.9 µM

## CC1(C)CNC[C@@]2(C)OCCOCCOCCO[C@@]3(C)CNCC(C)(C)NC(=O)[C@](C)(CNCC(C)(C)NC3=O)OCCOCCOCCO[C@](C)(CNCC(C)(C)NC2=O)C(=O)N1
  EC50: > 200 µM
  IC50: > 200 µM

## CC1(C)C=C(N2CCN(C3=CC(C)(C)NC(C)(C)C3)CC2)CC(C)(C)N1
  EC50: > 182 µM
  IC50: > 182 µM

## NCCCCCNOCCCN
  EC50: > 200 µM
  IC50: 132 µM

## COc1ccc2c(C)cc(N/N=C/c3ccc(C)s3)nc2c1
  EC50: > 200 µM
  IC50: 9.12 µM

## NCCS/C=C\C(=O)O
  EC50: > 1700 µM
  IC50: > 1700 µM

## CC(C)CCc1n[nH]c(=O)n1/N=C\c1ccccc1
  EC50: > 200 µM
  IC50: 66.1 µM

## Cc1ccc(/C=C2\CCC/C(=C\c3ccc(O)c(CN4CCCCC4)c3)C2=O)cc1
  EC50: > 100 µM

## COc1ccc(C2C(C)C(=O)C(C)C(c3ccc(OC)cc3)N2N=O)cc1 (stereo not given)
  EC50: > 19.5 µM
  IC50: > 19.5 µM

## OCCN1CCN(CC/C=C2/c3ccccc3Sc3ccc(Cl)cc32)CC1
  EC50: > 200 µM
  IC50: 7.41 µM

## CC1(C)CC2CCC(O)C2C(CCO)N1 (stereo not given)
  EC50: > 200 µM
  IC50: > 200 µM

## COC(=O)C1=C(CO)C2C=CC1C2 (stereo not given)
  outcome: inactive

## CC(=O)c1cc(-c2ccccn2)c(=O)n2ccccc12
  EC50: > 200 µM
  IC50: 112 µM
